Results on eleven compounds are retold here after US10485739B2, “High strength microcapsules” (ENCAPSYS, LLC, priority 2014, dated 2019).

In brackets after ≈: the same amount, converted by molar mass.

The nature of the first series: Monomer solubility in water (GC/MS of water phase). The settings on record: @ 25° C.; monomer equilibrated with deionized water 24 hours. In kind it is physicochemical. As to the method: Monomer Solubility in Water
Solubility of the monomers in water is determined by combining 5 g of monomer and 5 g of deionized water in a sealed 20 ml vial for 30 min, after which the sample is allowed to sit at room temperature for 24 hours to establish equilibrium and phase separation of monomer from water. The water phase was then removed and analyzed to determine the monomer concentration GC/MS (7890B GC with a 5977A MSD Mass Spectrophotometer), both from Agilent. Inlet temperature at 270 C. Ramp starting at 100° C. to 320° C. at 10 degrees per min. The mass spec was scanning from a molecular weight of 30-500. The GC column was a Agilent DB-SMS 30M×0.250 mm.
Take `C=CC(=O)OCCOCCOCC` [SR256, 2-(2-ethoxyethoxy) ethyl acrylate]: the Solubility in water turned out to be 25330 µg/mL (≈ 135 mM).
In turn, “Polyethylene glycol 200 diacrylate [SR259]” displayed a Solubility in water of 40680 µg/mL.
Still for that read-out and setting: as for “Polyethylene glycol 400 diacrylate [SR344]”, the entry is “soluble”.
As to “polyethylene glycol (600) diacrylate [SR610]”, the Solubility in water entry is “soluble”.

The series is the same for the next values; noted with them: thermodynamic from solid; @ 25° C.; monomer equilibrated with deionized water 24 hours.
The solubility is the dissolved amount per volume that the medium holds. Low values mean little dissolved substance, high ones much dissolved substance. Take `C=C(C)C(=O)OCCOC(=O)C(=C)C` [SR206, Ethylene glycol dimethacrylate]: the concentration in solution (solubility at 24 h) was 2400 µg/mL (≈ 12.1 mM).
Compound `C=CC(=O)OCC(C)(C)COC(=O)C=C` [SR247, Neopentyl glycol diacrylate] had a solubility at 24 h of 940 µg/mL (≈ 4.43 mM).
As to `C=CC(=O)OCC(COC(=O)C=C)(COC(=O)C=C)COC(=O)C=C` [SR295, PENTAERYTHRITOL TETRAACRYLATE], the concentration in solution (solubility at 24 h) came to 4230 µg/mL (≈ 12 mM). This solubility at 24 h is about 4.5-fold higher than that of the compound before.

Test in the next series: not given
The settings on record: temperature at which initiator has 10 hour half-life; cited from earlier work.
For `CC(C)(N=NC(C)(C)C(=N)N)C(=N)N.Cl` [Sample V-50, 2,2′-azobis(2-amidinopropane) hydrochloride], the “10 hour ½ life temperature” value is 10 hour ½ life at 56 °C.
With `CC(C)(N=NC(C)(C)C(=O)NCCO)C(=O)NCCO` [VA-086, 2,2′-Azobis[2-methyl-N-(2-hydroxyethyl)propionamide]], the “10 hour ½ life temperature” value is 10 hour ½ life at 86 °C.
Take `CCC(C)(C#N)N=NC(C)(C#N)CC` (centres unmarked) [Vazo-67, 2,2′-azobis(2-methylbutyronitrile)]: the “10 hour ½ life temperature” value is 10 hour ½ life at 67 °C.
On to `N#CC1(N=NC2(C#N)CCCCC2)CCCCC1` [Vazo-88, 1,1′-Azobis(cyclohexanecarbonitrile)], for which the “10 hour ½ life temperature” value is 10 hour ½ life at 88 °C.
